One molecule from patent US11598778B2, “Method for diagnosis, prognosis and determination of treatment for cutaneous t-cell lymphoma” (UNIVERSITY OF PITTSBURGH—OF THE COMMONWEALTH SYSTEM OF …, priority 2013, dated 2023) can be followed below.

Assay type in all cases: cell-based, human
One test concerns TOX. Nature of the test: qRT-PCR of TOX gene expression in cultured PBMCs after drug treatment. The following applies: isolated PBMCs, 48 hours of incubation with treatment; 4 μM romidepsin or 20 uM pralatrexate; romidepsin p<0.05; FIG. 5A. How it is done: (§1) Isolated PBMCs were cultured overnight and the next day divided into two treatment groups: 4 μM romidepsin and 20 uM pralatrexate. Each treatment was added 24 hours following culture initiation and was replaced along with fresh media 24 hours after initial treatment. After 48 hours of incubation with treatment, RNA was isolated from treated cells using RNAprotect and RNeasy (Qiagen, Valencia, Calif.) per manufacturer's instructions. For cDNA synthesis, total RNA (100 ng) was used for Reverse Transcription (RT) with Superscript II reverse transcriptase (Life Technologies, Gaithersburg, Md.) using oligo dT primers according to the recommendations of the manufacturer. 2 ul of the resulting cDNA was used for each PCR reaction. Quantitative reverse transcription PCR was performed using TaqMan PCR master mix (Applied Biosystems, Foster City, Calif.) together with TaqMan probes and primers (Applied Biosystems) using standard conditions. Expression of TOX, PLS3 and […] genes were measured in this way.

In another test the test system is PLS3. Put plainly: qRT-PCR of PLS3 gene expression in cultured PBMCs after drug treatment. The conditions noted are these: isolated PBMCs, 48 hours of incubation with treatment; 4 μM romidepsin or 20 uM pralatrexate; romidepsin p<0.05; FIG. 5B. As to the method:
as §1

A further test deals with RUNX3. Put plainly: qRT-PCR of RUNX3 gene expression in cultured PBMCs after drug treatment. The conditions noted are these: isolated PBMCs, 48 hours of incubation with treatment; 4 μM romidepsin or 20 uM pralatrexate; romidepsin p<0.05; FIG. 5C. As to the method: as §1

For the molecule `C#CCC(Cc1cnc2nc(N)nc(N)c2n1)c1ccc(C(=O)N[C@@H](CCC(=O)O)C(=O)O)cc1` (stereo partly drawn) [pralatrexate], in the test with TOX, the “gene expression of TOX” value was “did not result in altered gene expression”. Also, the “gene expression of PLS3” value with PLS3 was “did not result in altered gene expression”. Further, the “expression of RUNX3” value in the test with RUNX3 is “did not result in altered gene expression”.
